From paper PMC9411606, “Control cell migration by engineering integrin ligand assembly” (Nature Communications, 2022) come the findings set out here.

“Also recorded” adds a separate entry of the source.

Holding throughout (assay type): cell-based, human
Test [1] has as its system HuH-7 cells. As to the kind of experiment: Morphodynamics analysis (edge velocity). The following applies: for Retraction velocity / Protrusion velocity: median. On the procedure:
The whole-cell morphodynamics maps were generated using the open-source ImageJ plugin “ADAPT”[46]. The analyses were done on the maximum intensity projection of 5.5-µm stack images of mRuby-Lifeact-7 transfected HuH-7 cells pretreated with peptides for 12 hr. A spinning-disk confocal (Olympus SD-OSR) equipped with the camera Prime BSI sCMOS camera and a 100×/1.35 Silicon UPlanSApo objective was used to obtain the images every 2 min. All velocity values are directly measured using the plugin and plotted using GraphPad Prism. Briefly, the fluorescent images were Gaussian filtered to suppress noise and then a gray-level threshold was applied to create a binary image. The cell boundary was taken as pixels bordering segmented regions and the resulting segmentation is used as the seed for the region-growing algorithm in the next frame. […] The change in gray level was used to calculate the membrane velocity at each point and for a better visual representation, the resulting velocity map images (around 10000 × 100 pixels) were stretched to optimize visualization. […]

The subject of test [2] is cells lacking integrin α3β1 expression. Put plainly: Cell adhesion assay, cells lacking integrin α3β1. The note with it: coated with 100 µM, 1 h at 37 °C, n = 30. On the procedure:
(§1) The 96-well microplates wells were coated with peptide assemblies (the concentration of FFFIKLLI was kept at 100 μM constantly) for 12 hr at 37 °C before blocked with the Blocking Buffer (2% BSA, 1 mM CaCI2 and 1 mM MnCI2 in PBS) for 1 hr at 37 °C. Cells were collected from culture dishes and suspended in the Blocking Buffer containing anti-laminin-5 (P3H9-2, MAB1947, Chemicon, 5 μg/ml), anti-fibronectin (IST-9, ab6328, Abcam, 20 μg/ml) or IgG isotype control (20 μg/ml, Abcam) before immediately seeded to the coated well (20,000 cells/well) and allowed to incubate at 37 °C for 1 h. The wells were washed for three times with the Blocking Buffer and the phase-contrast images were captured by IncucyteS3 (Essen Bioscience) with a 10× objective.

The subject of test [3] is FAK Y397 phosphorylation in HuH-7 cells. As to the kind of experiment: Western blotting FAK / pY397 FAK.
Test [4] concerns Rac1 in HuH-7 cells (RaichuEV-Rac1). Put plainly: Rac1 activity by FRET. An excerpt: The mGFP-paxillin expression vector was a gift from A. Kusumi (Okinawa Institute of Science and Technology, Japan). pGFP-FAK and pEGFP-vinculin were gifts from Kenneth Yamada (RRID: Addgene_50513 and Addgene¬_50515)[39], EGFP-talin, mVenus-Integrin-Beta1 and mRuby-Lifeact-7 was a gift from Michael Davidson (RRID: Addgene_54560). pEGFPC1/Gg Vinculin 1-258 (akaVD1) was a gift from S. Craig (RRID: Addgene_46270)[40]. The Rac1 FRET Sensor, pCAGGS-RaichuEV-Rac1was generously provided by K. Aoki (National Institute for Basic Biology, Japan)[41] and the RhoA FRET sensor, DORA-RhoA was generously provided by Yi I. Wu (University of Connecticut Health Center, USA)[42]. The expression vectors for Rac1/Tiam1 activation system (Lyn11-linker-FRB, YFP-FKBP, YFP-FKBP-linker-Tiam1, and pTriEx-PA-Rac1) was generously provided by T. Inoue (Johns Hopkins University, USA)[43].

Test [5] has as its system HuH-7 cells. Put plainly: Traction stress analysis. The following applies: HuH-7 on PDMS, 12 hr, n = 18-21 cells. The method, then:
mRuby-Lifeact-7 transfected HuH-7 cells were applied for the traction force microscopy experiments. The in situ fluorescent images of the cell was applied to define the area of measurement. The cells were seeded on a PDMS substrate functionalized with 0.2 µm FluoSpheres™ Carboxylate-Modified Microspheres (F8807, Invitrogen) at a density of approximately 6000 cells/cm^2. The substrate was fabricated by following the published protocol on (STAR) Protocol[45], except that there were no ECM proteins coated on the substrate here. […] After being pretreated with peptides for 12 hr, the samples were imaged by a 100×/1.35 Silicon UPlanSApo objective, and the bead displacement obtained from confocal imaging was converted into force-displacement fields following established protocol[47],[48]. Briefly, Images of beads with and without cell attachment were first aligned to correct experimental drift using ImageJ plugin “align slices in stack”. The displacement field was subsequently calculated by another ImageJ plugin “PIV (Particle Image Velocimetry)”. The cross-correlation PIV with a size of 64 × 32 pixels was used on all images for the PIV analysis to produce the position and vector field of the bead displacement. With the displacement field obtained from the PIV analysis, the traction force field was then reconstructed by the ImageJ plugin “FTTC”. […]

Test [6] deals with HuH-7 cells. Put plainly: Cell adhesion assay, HuH-7. The note with it: FFFIKLLI pre-coated dishes. On the procedure:
as §1

Test [7] relates to HuH-7 cells. Put plainly: Random cell migration assay. On the procedure: HuH-7 cells were labeled with fluorescent protein fusion constructs or Hoechst 33342. After being treated with or without the peptides for 12 hr, the cells were tracked with a 20x/0.8 Plan-Apochromat objective for 6 h. The centroids of labeled cells were tracked using the TrackMate plugin (https://imagej.net/plugins/trackmate/) in ImageJ[44]. A custom MATLAB script generated by a person was applied to reconstruct the cell migration trajectory. […]
The directionality of the cell movement was described by the persistence index and the persistent time, the persistence index was defined by the ratio of the vectorial distance (the distance between the origin and the endpoint of the movement) and the length of the total path and the persistent time is defined as the time it takes for the cell to change the initial direction by 90°[45].

Setting [8] is: entire periphery, HuH-7, pretreated 12 hr, violin plot.
Where [9] appears, read: vin258-transfected HuH-7, 12 hr, n = 10 cells.
Setting [10] is: relative to Ctrl = 1, 12 hr, representative blot.

Turning to “FFFIKLLI [assembling ligand: FFF coupled to the N-terminus of IKLLI; self-assembles into nanofilaments]”, the “trailing edge retraction and leading-edge protrusion” value with HuH-7 cells [1] (HuH-7, FFFIKLLI 100 μM, 12 h) was “restricted both trailing edge retraction and leading-edge protrusion”. Moreover, the Retraction velocity with HuH-7 cells [1] (Tiam1/Rac1-activated HuH-7, 12 hr, n = 7, 8 cells) stood at 0.035 µm/min; in the test with HuH-7 cells [1] (setting [8]), 0.0076 µm/min; in the test with HuH-7 cells [1] (setting [9]), 0.0080 µm/min. Also, the Protrusion velocity is listed as 0.0072 µm/min in the test with HuH-7 cells [1] (setting [8]) and 0.0086 µm/min in the test with HuH-7 cells [1] (setting [9]). Also, the “adherence to FFFIKLLI-coated dishes” value in test [2] was “washed out”. Further, the “FAK Y397 phosphorylation” value in test [3] (HuH-7, 12 hr, n = 9) is recorded as “reduction”. In test [3] (setting [10]), the FAK band stood at 0.87. The pY397FAK band in test [3] (setting [10]) was found to be 0.34. The “Rac1 activity, FRET/CFP” value in test [4] (12 hr, n = 50 cells, mean) is listed as 1.262. Also, the “Rac1 activity” value in test [4] (HuH-7) was “great inhibition; also recorded: global inhibition”. For the same sequence, in the test with HuH-7 cells [5], the “Average Traction Stress” value turned out to be 0.101 kPa. The “Maximal Traction Stress” value in the test with HuH-7 cells [5] is 0.828 kPa. Further, the attached cells with HuH-7 cells [6] (IgG, n = 30) came out at 171.2 Counts / mm2; in the test on HuH-7 cells [6] (anti-fibronectin IST-9, n = 30), 162.2 Counts / mm2; in the test on HuH-7 cells [6] (anti-laminin-5 P3H9-2, n = 30), 157.4 Counts / mm2. Moreover, in the test with HuH-7 cells [7] (HuH-7 expressing vin258, 12 h), the “cell motility, vin258-expressing cells” value is “suppression effect on cell motility was remained”. Moreover, the migration speed in the test on HuH-7 cells [7] (Tiam1/Rac1-activated HuH-7, n = 230, 232 cells, p = 0.4508 vs Ctrl) was 0.3729 µm/min; with HuH-7 cells [7] (vin258-transfected HuH-7, mean, n = 169, 176 cells) it was 0.140 µm/min.
